Patent US20250195660A1, “INACTIVATING BACTERIA WITH ELECTRIC PULSES AND ANTIBIOTICS” (Purdue Research Foundation, priority 2018, published 2025)

Tests used:
Type in all cases: cell-based
[1] = test system: carbapenem-resistant Escherichia coli (ATCC BA-2452, NDM-1 positive); test: Inactivation of carbapenem-resistant E. coli by 300 ns electric pulses and/or antibiotics (CFU plating); conditions: 30 kV/cm NSEPs + 20 μg/mL
Excerpt: (§1) Except for rifampicin, the five other antibiotics in these examples primarily target gram-positive bacteria and are largely ineffective or not used against gram-negative bacteria in a clinical setting.
(§2) A Blumlein pulsed generator consisting of two lines comprised of twelve 2000 pF capacitors connected by inductors produced 300 ns EPs with rise-times of 30 ns and fall-times of 35 ns at a repetition frequency of 1 Hz (12). The EPs were applied to a standard 2 mm gap electroporation cuvette (Dot Scientific R) filled with a solution containing the microorganisms. Used was a Luria broth of 0.5% salinity (5 grams of NaCl/Liter) for the solution to electrically match the resistance of the sample with the impedance of the pulse generator (11Ω) to prevent signal reflection. The voltage measurements were taken using a LeCroy PPE 20 kV high voltage probe with a 1000:1 attenuation recorded by a TeleDyne LeCroy® Waverunner 6 Zi Oscilloscope with a bandwidth of 4 GHZ.
(§3) The gram-negative strains included a carbapenem-resistant Escherichia coli (ATCC® BA-2452TM, New Delhi metallo-beta-lactamase NDM-1 positive.), Klebsiella pneumoniae (ATCC® BAA-2146TM NDM-I positive), and a gentamicin, streptomycin and sulfonamide resistant Pseudomonas aeruginosa (BEI Resources NR-31040). Assessed was the gram-positive strain of methicillin resistant Staphylococcus aureus (USA300-0114 strain), which is also resistant to erythromycin and tetracycline. Samples were cultured in Luria broth (LB Broth Lennox, powder microbial growth medium, SIGMA-ALDRICH®) by taking 25 mL of broth in a 50 mL sterile conical tube and incubating in a shaker for 16 h at 37° C. Samples were diluted 50% by adding 25 mL media to the incubated sample as we plated controls for each experiment and condition.
(§4) Samples were treated in 2 mm gap cuvettes containing 365 μL of sample between the electrodes, with bio-grade mineral oil added on top of the electrode plates to prevent arcing.
(§5) To establish a common baseline for comparing different NSEP parameters, we fixed the energy density U delivered to the cuvettes according to Formula (1) (above). For 300 ns EPs, 500 EPs at 20 kV/cm and 222 EPs at 30 kV/cm delivered the same energy to the sample.
(§6) Tissue culture Petri dishes from VWR R (15 cm diameter, 10 mm height) were utilized for plating. Each plate was covered with 15 mL of Luria broth (Agar, microbiology tested powder, SIGMA-ALDRICH®), which was prepared by adding 20 g of LB Lennox (SIGMA-ALDRICH) and 15 g/L of agar to water prior to being autoclaved. The salinity of the agar was the same as the LB (0.5% NaCl) to minimize additional environmental stressors on the bacteria.
(§7) Removed was 20 μL from each cuvette and added to 180 μL of PBS in a 96-well dish in triplicate. Each well was then diluted by a ratio of 10:1 five additional times by taking 20 μL of the diluted sample into subsequent wells using multi-channel pipettes (using fresh tips for each dilution). Plated were the six dilutions of each sample two times each by adding 4 μL from each well onto the Petri dish using a multi-channel pipette, which allowed the plating of all three replicates on the same plate to achieve n=6. These plates were then cultured overnight in an incubator at 37° C., and counted the next day.

[2] = test system: gentamicin, streptomycin and sulfonamide resistant Pseudomonas aeruginosa (BEI Resources NR-31040); test: Inactivation of P. aeruginosa by 300 ns electric pulses and/or antibiotics (CFU plating); conditions: 20 kV/cm EPs + 20 μg/mL
Excerpt: as §1, §2, §3, §4, §5, §6, §7

[3] = test system: methicillin resistant Staphylococcus aureus (USA300-0114 strain); test: Inactivation of MRSA by 300 ns electric pulses and/or antibiotics (CFU plating); conditions: 20 μg/mL + 30 kV/cm EPs
Excerpt: as §1, §2
as §3, with “condition. […]” for “condition.”
Removed was 20 μL from each cuvette and added to 180 μL of PBS in a 96-well dish in triplicate. […] These plates were then cultured overnight in an incubator at 37° C., and counted the next day.

In the case of `CO[C@H]1/C=C/O[C@@]2(C)Oc3c(C)c(O)c4c(O)c(c(/C=N/N5CCN(C)CC5)c(O)c4c3C2=O)NC(=O)/C(C)=C\C=C\[C@H](C)[C@H](O)[C@@H](C)[C@@H](O)[C@@H](C)[C@H](OC(C)=O)[C@@H]1C` [rifampicin], the “log reduction of E. coli” value [1] was 6 log, the “synergy (FIG. 11B legend)” value [2] was “approximately 2 log” and the “synergy (synergistic inactivation), MRSA” value [3] was “approximately 1.5 log”.
